Results reported in PubChem BioAssay AID248 (DTP/NCI, 2004).
Values joined by “and” are separate entries in the source; they are usually repeats but may differ in a detail not shown here. Equal entries are not always repeated. Toxic doses and inconclusive results are not listed. No stated cut-off is given here; in the data, active means T/C of 150% or more; inactive means T/C below 125%.

Test system: L1210 leukemia ip in BDF1 mice, survival T/C
Experiment: NCI In Vivo Anticancer Drug Screen. Data for tumor model L1210 Leukemia (intraperitoneal) in B6D2F1 (BDF1) mice
Conditions: endpoint: mean survival time, higher = longer survival
Procedure, shortened: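 Tumor cells were implanted, animals were treated, and survival was followed. The result divides the treated measurement by the vehicle-control measurement.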

[1] = dose: 6.25 mg/kg/injection, schedule: Q04DX002 (ip), vehicle: saline with Tween-80
[2] = dose: 12.5 mg/kg/injection, schedule: Q04DX002 (ip), vehicle: saline with Tween-80
[3] = dose: 25.0 mg/kg/injection, schedule: Q04DX002 (ip), vehicle: saline with Tween-80
[4] = dose: 100.0 mg/kg/injection, schedule: Q04DX003 (ip), vehicle: Klucel (hydroxypropylcellulose) (HPC)
[5] = dose: 25.0 mg/kg/injection, schedule: Q04DX003 (ip), vehicle: saline
[6] = dose: 50.0 mg/kg/injection, schedule: Q04DX003 (ip), vehicle: saline
[7] = dose: 100.0 mg/kg/injection, schedule: Q04DX003 (ip), vehicle: saline
[8] = dose: 100.0 mg/kg/injection, schedule: Q04DX002 (ip), vehicle: Klucel (hydroxypropylcellulose) (HPC)
[9] = dose: 200.0 mg/kg/injection, schedule: Q04DX002 (ip), vehicle: Klucel (hydroxypropylcellulose) (HPC)
[10] = dose: 400.0 mg/kg/injection, schedule: Q04DX002 (ip), vehicle: Klucel (hydroxypropylcellulose) (HPC)
[11] = dose: 200.0 mg/kg/injection, schedule: Q04DX003 (ip), vehicle: Klucel (hydroxypropylcellulose) (HPC)
[12] = dose: 400.0 mg/kg/injection, schedule: Q04DX003 (ip), vehicle: Klucel (hydroxypropylcellulose) (HPC)
[13] = dose: 100.0 mg/kg/injection, schedule: Q01DX001 (ip), vehicle: saline
[14] = dose: 200.0 mg/kg/injection, schedule: Q01DX001 (ip), vehicle: saline
[15] = dose: 400.0 mg/kg/injection, schedule: Q01DX001 (ip), vehicle: saline

Measured: T/C

c1ccc2sc(SSN3CCSCC3)nc2c1
inactive: dose: 75.0 mg/kg/injection, schedule: Q04DX003 (ip), vehicle: Klucel (hydroxypropylcellulose) (HPC) 102 % of control | dose: 100.0 mg/kg/injection, schedule: Q01DX001 (ip), vehicle: other 98 % of control | dose: 150.0 mg/kg/injection, schedule: Q04DX003 (ip), vehicle: Klucel (hydroxypropylcellulose) (HPC) 100 % of control | dose: 200.0 mg/kg/injection, schedule: Q01DX001 (ip), vehicle: other 92 % of control | dose: 300.0 mg/kg/injection, schedule: Q04DX003 (ip), vehicle: Klucel (hydroxypropylcellulose) (HPC) 89 % of control | dose: 400.0 mg/kg/injection, schedule: Q01DX001 (ip), vehicle: other 97 % of control

COc1ccc(/C=C/[N+](=O)[O-])cc1
inactive: [1] 97 % of control | [2] 93 % of control | dose: 25.0 mg/kg/injection, schedule: Q04DX002 (ip), vehicle: other 96 % of control | [3] 89 % of control | dose: 25.0 mg/kg/injection, schedule: Q04DX003 (ip), vehicle: Klucel (hydroxypropylcellulose) (HPC) 100 % of control | dose: 50.0 mg/kg/injection, schedule: Q04DX003 (ip), vehicle: Klucel (hydroxypropylcellulose) (HPC) 103 % of control | [4] 95 % of control

CC(c1ccccc1)[As](C)(=O)O (centres undefined)
inactive: [5] 102 % of control | [6] 100 % of control | [7] 122 % of control

Cc1cccc(C)c1OC(=O)Nc1cccc2ccccc12
inactive: dose: 12.5 mg/kg/injection, schedule: Q04DX002 (ip), vehicle: Klucel (hydroxypropylcellulose) (HPC) 105 % of control | dose: 25.0 mg/kg/injection, schedule: Q04DX002 (ip), vehicle: Klucel (hydroxypropylcellulose) (HPC) 118 % of control | dose: 50.0 mg/kg/injection, schedule: Q04DX002 (ip), vehicle: Klucel (hydroxypropylcellulose) (HPC) 112 % of control | [8] 95 % of control | [9] 97 % of control | [10] 89 % of control

Cc1ccc(CC(=O)O)cc1C
inactive: dose: 100.0 mg/kg/injection, schedule: Q01DX009 (ip), vehicle: saline with Tween-80 101 % of control | dose: 200.0 mg/kg/injection, schedule: Q01DX009 (ip), vehicle: saline with Tween-80 104 % of control | dose: 400.0 mg/kg/injection, schedule: Q01DX009 (ip), vehicle: saline with Tween-80 102 % of control

O=CNC(CSC(c1ccccc1)c1ccccc1)C(=O)O (centres undefined)
inactive: dose: 40.0 mg/kg/injection, schedule: Q01DX009 (ip), vehicle: Klucel (hydroxypropylcellulose) (HPC) 108 % of control | dose: 75.0 mg/kg/injection, schedule: Q01DX001 (ip), vehicle: Klucel (hydroxypropylcellulose) (HPC) 86 % of control | dose: 75.0 mg/kg/injection, schedule: Q01DX009 (ip), vehicle: Klucel (hydroxypropylcellulose) (HPC) 105 % of control | dose: 150.0 mg/kg/injection, schedule: Q01DX001 (ip), vehicle: Klucel (hydroxypropylcellulose) (HPC) 93 % of control | dose: 150.0 mg/kg/injection, schedule: Q01DX009 (ip), vehicle: Klucel (hydroxypropylcellulose) (HPC) 103 % of control

CC1c2c(-c3ccccc3)oc(-c3ccccc3)c2C(C)C(Br)C1Br (centres undefined)
inactive: dose: 100.0 mg/kg/injection, schedule: Q01DX009 (ip), vehicle: Klucel (hydroxypropylcellulose) (HPC) 121 % of control | [4] 103 % of control | dose: 200.0 mg/kg/injection, schedule: Q01DX009 (ip), vehicle: Klucel (hydroxypropylcellulose) (HPC) 104 % of control | [11] 90 % of control | dose: 400.0 mg/kg/injection, schedule: Q01DX009 (ip), vehicle: Klucel (hydroxypropylcellulose) (HPC) 109 % of control | [12] 92 % of control

CN=C(Nc1ccccc1)SC
inactive: dose: 25.0 mg/kg/injection, schedule: Q01DX009 (ip), vehicle: saline 92 % of control | [5] 94 % of control | dose: 50.0 mg/kg/injection, schedule: Q01DX009 (ip), vehicle: saline 105 % of control | [6] 97 % of control | [13] 104 % of control | dose: 100.0 mg/kg/injection, schedule: Q01DX009 (ip), vehicle: saline 105 % of control | [7] 97 % of control

CCCCCCCCCCCC[P+](CCCC)(CCCC)CCCC
inactive: dose: 0.55 mg/kg/injection, schedule: Q01DX Z (ip), vehicle: saline 110 % of control | dose: 1.16 mg/kg/injection, schedule: Q01DX Z (ip), vehicle: saline 100 % of control | dose: 1.25 mg/kg/injection, schedule: Q01DX Z (ip), vehicle: saline 110 % of control

CC(CN)OC12CC3CC(CC(C3)C1)C2 (centres undefined)
inactive: dose: 5.0 mg/kg/injection, schedule: Q04DX002 (ip), vehicle: saline 91 % of control | dose: 10.0 mg/kg/injection, schedule: Q01DX009 (ip), vehicle: saline 94 % of control | dose: 10.0 mg/kg/injection, schedule: Q04DX002 (ip), vehicle: saline 102 % of control | dose: 20.0 mg/kg/injection, schedule: Q01DX009 (ip), vehicle: saline 101 % of control | dose: 20.0 mg/kg/injection, schedule: Q04DX002 (ip), vehicle: saline 94 % of control | dose: 40.0 mg/kg/injection, schedule: Q01DX009 (ip), vehicle: saline 101 % of control | dose: 40.0 mg/kg/injection, schedule: Q04DX002 (ip), vehicle: saline 95 % of control and 91 % of control

CC(=O)Nc1ccc2ccc3ccc4ccccc4c3c2c1
inactive: dose: 3.12 mg/kg/injection, schedule: Q04DX002 (ip), vehicle: saline with Tween-80 111 % of control | [1] 111 % of control | [2] 108 % of control | [3] 103 % of control | dose: 50.0 mg/kg/injection, schedule: Q04DX002 (ip), vehicle: saline with Tween-80 102 % of control

Cn1nnc(CCCl)n1
inactive: [13] 110 % of control | [14] 91 % of control | [15] 95 % of control

CCCCCCP(C)(=O)CCCCCC
inactive: dose: 100.0 mg/kg/injection, schedule: Q01DX001 (ip), vehicle: saline with Tween-80 99 % of control

Cc1ccc(C(C)C)cc1NC(=S)Nc1ccccc1
inactive: [8] 105 % of control | [9] 111 % of control | [10] 97 % of control

Cc1c2cc3c(c1O)C(=O)CC(O3)c1ccc(O)c(c1)-c1cccc(c1O)C(=O)OCC1OC(O2)C(O)C(O)C1O (centres undefined)
inactive: dose: 0.13 mg/kg/injection, schedule: Q01DX009 (ip), vehicle: Klucel (hydroxypropylcellulose) (HPC) 104 % of control | dose: 0.25 mg/kg/injection, schedule: Q01DX009 (ip), vehicle: Klucel (hydroxypropylcellulose) (HPC) 97 % of control | dose: 0.5 mg/kg/injection, schedule: Q01DX009 (ip), vehicle: Klucel (hydroxypropylcellulose) (HPC) 98 % of control | dose: 1.0 mg/kg/injection, schedule: Q01DX009 (ip), vehicle: Klucel (hydroxypropylcellulose) (HPC) 103 % of control

CCNC(=O)c1ccc2c(c1NCC)C(=O)c1ccccc1C2=O
inactive: dose: 75.0 mg/kg/injection, schedule: Q01DX001 (ip), vehicle: acetone 98 % of control | dose: 150.0 mg/kg/injection, schedule: Q01DX001 (ip), vehicle: acetone 104 % of control | dose: 300.0 mg/kg/injection, schedule: Q01DX001 (ip), vehicle: acetone 104 % of control

O=S1(=O)CCCN1c1ccccn1
inactive: dose: 100.0 mg/kg/injection, schedule: Q04DX002 (ip), vehicle: other 104 % of control | dose: 200.0 mg/kg/injection, schedule: Q04DX002 (ip), vehicle: other 89 % of control | dose: 400.0 mg/kg/injection, schedule: Q04DX002 (ip), vehicle: other 96 % of control

Cc1ccc2cc(O)ccc2c1
inactive: [13] 91 % of control | dose: 100.0 mg/kg/injection, schedule: Q04DX003 (ip), vehicle: acetone 90 % of control | [14] 96 % of control | dose: 200.0 mg/kg/injection, schedule: Q04DX003 (ip), vehicle: acetone 90 % of control | [15] 92 % of control

ClCC/C(=C(/Cl)c1ccccc1)c1ccccc1
inactive: [4] 103 % of control | [11] 98 % of control | [12] 98 % of control

O=C(NCCCl)C(=O)NCCCl
inactive: [8] 104 % of control | [9] 107 % of control | [10] 93 % of control

O=C(CCCCCCCCCCBr)OCc1ccccc1
inactive: dose: 100.0 mg/kg/injection, schedule: Q01DX001 (ip), vehicle: saline sonified 103 % of control | dose: 200.0 mg/kg/injection, schedule: Q01DX001 (ip), vehicle: saline sonified 99 % of control | dose: 400.0 mg/kg/injection, schedule: Q01DX001 (ip), vehicle: saline sonified 105 % of control
